Measured values published in patent US20040132107A1, “Functional assay for g-protein-coupled receptors based on insect cells” (priority 2003, published 2004).
Each block holds one molecule with its values, some of them ahead of it.

Key:
human 5-HT1A GPCR = target: T1, human 5-HT1A GPCR (Homo sapiens, UniProt P08908); conditions: FIG. 16
T1 sequence (P08908 1-422): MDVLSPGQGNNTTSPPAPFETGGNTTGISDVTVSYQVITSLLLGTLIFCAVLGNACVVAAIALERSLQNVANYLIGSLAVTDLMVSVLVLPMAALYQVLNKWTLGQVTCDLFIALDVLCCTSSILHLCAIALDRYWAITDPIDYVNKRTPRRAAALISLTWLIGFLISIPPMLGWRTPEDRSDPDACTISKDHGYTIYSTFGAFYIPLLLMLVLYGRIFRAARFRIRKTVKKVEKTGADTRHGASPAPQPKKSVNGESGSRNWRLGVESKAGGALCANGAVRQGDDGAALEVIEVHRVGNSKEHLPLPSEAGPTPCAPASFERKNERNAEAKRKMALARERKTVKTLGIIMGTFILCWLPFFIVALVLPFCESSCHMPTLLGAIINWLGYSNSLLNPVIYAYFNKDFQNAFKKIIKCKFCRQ

human Dopamine D1A GPCR = human Dopamine D1A GPCR (Homo sapiens, UniProt P21728); test: DADR insect-based assay cell lines (Sf9; Dopamine D1A, Galpha16, aequorin), fractional luminescence
Experimental: In one embodiment, the assay system of the invention was implemented using the human dopamine D1 (hDD1) GPCR, which is normally coupled to a Gs-type G protein.
To assay GPCR antagonists required a modified protocol. […] Light output was monitored for 75 seconds. […] Data analysis was performed as described above. An optional 10 second rocking step was added after each individual well was measured, to ensure that the insect-based assay cells arrayed in the plate stayed in suspension
Agonist and antagonist concentration-response curves were obtained by plotting graphs of A/(A+L) on the Y-axis versusLOG10 of ligand concentration (Molar) on the X-axis. Curve fitting was performed using the software package GraphPad Prism (GraphPad Software, Inc., San Diego, Calif., USA). The 3- or 4-Parameter Logistic equations were used for non-linear regression, and to acquire derived values (EC50 and Hill Slope).

[1] = target: T2, human Thromboxane A2 GPCR (Homo sapiens, UniProt P21731); test: TA2R insect-based assay cell lines (Sf9, transiently transfected), fractional luminescence
T2 construct: expressed in transfected cells; host or cells: Sf9, transiently transfected
T2 sequence (P21731 1-343): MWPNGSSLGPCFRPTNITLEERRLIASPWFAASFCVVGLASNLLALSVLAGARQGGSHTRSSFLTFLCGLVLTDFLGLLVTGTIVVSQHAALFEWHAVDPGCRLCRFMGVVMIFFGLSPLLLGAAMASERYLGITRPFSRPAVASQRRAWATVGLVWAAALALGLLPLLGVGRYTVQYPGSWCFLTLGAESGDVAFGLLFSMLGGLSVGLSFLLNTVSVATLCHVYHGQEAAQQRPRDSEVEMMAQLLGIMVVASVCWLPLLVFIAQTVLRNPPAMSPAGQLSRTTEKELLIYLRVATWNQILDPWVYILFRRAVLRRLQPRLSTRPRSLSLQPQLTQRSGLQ
Experimental: Light output was monitored for 70 seconds. […] Data analysis was performed as described above
Agonist and antagonist concentration-response curves were obtained by plotting graphs of A/(A+L) on the Y-axis versusLOG10 of ligand concentration (Molar) on the X-axis.Curve fitting was performed using the software package GraphPad Prism (GraphPad Software, Inc., San Diego, Calif., USA). The 3- or 4-Parameter Logistic equations were used for non-linear regression, and to acquire derived values (EC50 and Hill Slope).

human Histamine H1 GPCR = target: T3, human Histamine H1 GPCR (Homo sapiens, UniProt P35367); test: HH1R insect-based assay cell lines (Sf9, transiently transfected), fractional luminescence
T3 construct: expressed in transfected cells; host or cells: Sf9, transiently transfected

[2] = target: human beta2 Adrenergic receptor (Homo sapiens, UniProt P07550); test: B2AR insect-based assay cell lines (Sf9, transiently transfected), fractional luminescence; conditions: FIG. 17
human 5-HT2A GPCR = human 5-HT2A GPCR (Homo sapiens, UniProt P28223); test: 5H2A insect-based assay cell lines (Sf9, transiently transfected), fractional luminescence; conditions: increasing concentrations of agonist; FIG. 14
[3] = 100 microM, cells expressing all three assay components

human Dopamine D1A GPCR, sequence (P21728 whole entry): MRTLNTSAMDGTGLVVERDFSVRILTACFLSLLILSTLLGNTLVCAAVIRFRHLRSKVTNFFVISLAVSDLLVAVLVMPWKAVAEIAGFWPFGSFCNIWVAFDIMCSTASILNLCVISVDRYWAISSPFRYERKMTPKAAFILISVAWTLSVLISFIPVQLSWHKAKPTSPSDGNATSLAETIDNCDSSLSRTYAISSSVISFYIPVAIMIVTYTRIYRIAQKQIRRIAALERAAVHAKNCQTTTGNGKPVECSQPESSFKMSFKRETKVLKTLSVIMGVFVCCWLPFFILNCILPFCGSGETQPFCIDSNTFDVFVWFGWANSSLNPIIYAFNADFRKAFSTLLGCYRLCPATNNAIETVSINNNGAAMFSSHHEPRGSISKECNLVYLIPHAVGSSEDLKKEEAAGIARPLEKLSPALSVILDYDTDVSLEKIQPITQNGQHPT
T3 sequence (P35367 whole entry): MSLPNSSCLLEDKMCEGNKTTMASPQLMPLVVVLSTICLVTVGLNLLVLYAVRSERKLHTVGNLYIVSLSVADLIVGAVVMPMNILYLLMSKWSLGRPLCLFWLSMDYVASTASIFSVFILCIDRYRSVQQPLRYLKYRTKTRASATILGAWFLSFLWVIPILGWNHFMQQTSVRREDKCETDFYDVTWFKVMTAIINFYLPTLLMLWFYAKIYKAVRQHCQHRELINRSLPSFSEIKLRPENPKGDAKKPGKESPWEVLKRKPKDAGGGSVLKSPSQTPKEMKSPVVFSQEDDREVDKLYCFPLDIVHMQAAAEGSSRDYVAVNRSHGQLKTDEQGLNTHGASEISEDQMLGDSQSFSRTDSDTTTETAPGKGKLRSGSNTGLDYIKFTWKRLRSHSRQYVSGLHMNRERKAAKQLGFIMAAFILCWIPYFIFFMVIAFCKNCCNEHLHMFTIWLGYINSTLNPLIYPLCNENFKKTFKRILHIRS
human beta2 Adrenergic receptor, sequence (P07550 whole entry): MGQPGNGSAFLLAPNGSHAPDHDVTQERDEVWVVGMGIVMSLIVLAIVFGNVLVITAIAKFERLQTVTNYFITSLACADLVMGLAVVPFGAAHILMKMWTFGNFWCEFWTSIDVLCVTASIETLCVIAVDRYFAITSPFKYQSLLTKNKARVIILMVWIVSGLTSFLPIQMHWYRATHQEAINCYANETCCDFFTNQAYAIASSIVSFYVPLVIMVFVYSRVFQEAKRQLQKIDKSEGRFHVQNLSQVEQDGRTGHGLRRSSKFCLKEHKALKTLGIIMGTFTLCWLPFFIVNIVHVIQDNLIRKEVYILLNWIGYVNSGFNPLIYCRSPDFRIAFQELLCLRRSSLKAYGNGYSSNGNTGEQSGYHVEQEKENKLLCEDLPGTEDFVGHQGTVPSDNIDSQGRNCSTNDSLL
human 5-HT2A GPCR, sequence (P28223 whole entry): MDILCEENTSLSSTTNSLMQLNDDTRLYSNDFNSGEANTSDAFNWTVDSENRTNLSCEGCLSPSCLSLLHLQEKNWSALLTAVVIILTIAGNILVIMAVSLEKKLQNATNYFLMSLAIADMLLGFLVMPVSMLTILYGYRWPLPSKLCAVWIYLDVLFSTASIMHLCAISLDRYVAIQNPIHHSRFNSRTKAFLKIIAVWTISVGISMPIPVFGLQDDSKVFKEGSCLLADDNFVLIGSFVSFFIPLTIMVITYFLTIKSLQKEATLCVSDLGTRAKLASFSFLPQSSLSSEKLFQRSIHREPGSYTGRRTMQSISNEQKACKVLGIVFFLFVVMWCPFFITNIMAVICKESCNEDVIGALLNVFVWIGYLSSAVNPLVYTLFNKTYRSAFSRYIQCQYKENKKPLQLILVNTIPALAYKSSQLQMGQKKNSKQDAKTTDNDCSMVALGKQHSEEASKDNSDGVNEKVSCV

Compound: CC(C)NCC(O)COc1cccc2ccccc12 (racemic) [DL-propranalol]
- effect of antagonist pre-incubation on activation by serotonin (human 5-HT1A GPCR; antagonist 10 microM, then serotonin): prevents subsequent activation

Compound: Oc1cc2c(cc1O)C(c1ccccc1)CNCC2 (stereo not shown) [SKF38393]
- agonist concentration-activity curve (human Dopamine D1A GPCR; increasing concentrations of agonist, FIG. 5): characteristic sigmoidal agonist concentration-activity curve

- block of U44069 agonist activity by pre-incubation with antagonist ([1]; FIG. 10): can be blocked
Compound: O=C(O)CCC/C=C\C[C@@H]1[C@H](CNNC(=O)Nc2ccccc2)[C@H]2CC[C@@H]1O2 [SQ29,548]
- antagonist concentration-activity curve ([1]; varying antagonist against fixed U44069 at 10 microM, FIG. 10): Characteristic sigmoidal antagonist concentration-activity curves

Compound: CCCCC[C@H](O)/C=C/[C@H]1[C@@H]2CO[C@@H](C2)[C@@H]1C/C=C\CCCC(=O)O [U44069]
- agonist concentration-activity curve ([1]; increasing concentrations of agonist, FIG. 9): characteristic sigmoidal agonist concentration-activity curve

Compound: OCCN1CCN(CC/C=C2/c3ccccc3Sc3ccc(C(F)(F)F)cc32)CC1 [cis-Flupenthixol]
- block of dopamine agonist activation by pre-incubation with antagonist (human Dopamine D1A GPCR; pre-incubation with antagonist, then dopamine, FIGS. 4 and 6): can be blocked
- antagonist concentration-activity curve (human Dopamine D1A GPCR; varying antagonist against fixed dopamine at 100 microM, FIG. 6): Characteristic sigmoidal antagonist concentration-activity curves

- response in the absence of the Histamine H1 receptor (human Histamine H1 GPCR): no response
Compound: NCCc1c[nH]cn1 [histamine]
- agonist concentration-activity curve (human Histamine H1 GPCR): characteristic sigmoidal agonist concentration-activity curve
- fractional response to histamine in the absence of Galpha16 (human Histamine H1 GPCR): reduced in the absence of Galpha16, it is still significant

- response of assay cells to agonist [2, 3]: respond
- agonist response in the absence of Galpha16 ([2]; cells without Galpha16): reduced in magnitude
Compound: NC[C@H](O)c1ccc(O)c(O)c1 [nor-epinephrine]

- response of assay cells to agonist (human 5-HT1A GPCR; [3]): respond
Compound: NCCc1c[nH]c2ccc(O)cc12 [serotonin]
- agonist concentration-activity curve (human 5-HT2A GPCR): characteristic sigmoidal agonist concentration-activity curve

- block of histamine agonist activity by pre-incubation with antagonist (human Histamine H1 GPCR; FIG. 12): can be blocked
Compound: Cc1ccc(/C(=C\CN2CCCC2)c2ccccn2)cc1.Cl [triprolidone hydrochloride]
- antagonist concentration-activity curve (human Histamine H1 GPCR; varying antagonist against fixed histamine at 100 microM, FIG. 12): Characteristic sigmoidal antagonist concentration-activity curves
